We go through 19 compounds from US7625948B2, “Ester compound and medicinal use thereof” (Japan Tobacco Inc., priority 2002, dated 2009).

In assay [1] the target is T1, Microsomal triglyceride transfer protein (MTP) from bovine liver (Bos taurus, UniProt P55156).
T1 construct: from tissue; host or cells: bovine liver
T1 sequence (P55156 12-887): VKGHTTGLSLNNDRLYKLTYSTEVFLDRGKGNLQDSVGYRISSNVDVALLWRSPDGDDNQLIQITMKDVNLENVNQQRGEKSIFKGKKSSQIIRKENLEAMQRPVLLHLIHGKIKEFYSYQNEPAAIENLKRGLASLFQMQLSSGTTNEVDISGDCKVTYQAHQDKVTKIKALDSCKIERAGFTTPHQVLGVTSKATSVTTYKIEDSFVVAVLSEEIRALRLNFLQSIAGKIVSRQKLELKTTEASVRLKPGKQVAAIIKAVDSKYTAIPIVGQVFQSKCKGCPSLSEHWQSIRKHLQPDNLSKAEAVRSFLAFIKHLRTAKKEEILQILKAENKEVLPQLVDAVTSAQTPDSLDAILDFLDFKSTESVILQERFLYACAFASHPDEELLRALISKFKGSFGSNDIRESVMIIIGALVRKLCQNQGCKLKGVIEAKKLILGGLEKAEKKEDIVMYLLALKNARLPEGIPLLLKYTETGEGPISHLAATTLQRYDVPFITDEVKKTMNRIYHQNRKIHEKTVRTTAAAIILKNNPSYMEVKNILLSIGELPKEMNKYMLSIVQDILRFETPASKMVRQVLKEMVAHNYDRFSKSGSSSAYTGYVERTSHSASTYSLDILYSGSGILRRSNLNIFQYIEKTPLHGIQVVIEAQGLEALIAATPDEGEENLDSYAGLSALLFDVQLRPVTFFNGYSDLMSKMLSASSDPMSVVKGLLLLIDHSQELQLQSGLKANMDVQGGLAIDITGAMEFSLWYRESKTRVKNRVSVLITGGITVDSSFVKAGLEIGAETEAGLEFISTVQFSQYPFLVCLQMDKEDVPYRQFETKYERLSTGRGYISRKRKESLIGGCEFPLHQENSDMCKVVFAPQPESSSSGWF
T1 sequence (P05307 21-510 partner): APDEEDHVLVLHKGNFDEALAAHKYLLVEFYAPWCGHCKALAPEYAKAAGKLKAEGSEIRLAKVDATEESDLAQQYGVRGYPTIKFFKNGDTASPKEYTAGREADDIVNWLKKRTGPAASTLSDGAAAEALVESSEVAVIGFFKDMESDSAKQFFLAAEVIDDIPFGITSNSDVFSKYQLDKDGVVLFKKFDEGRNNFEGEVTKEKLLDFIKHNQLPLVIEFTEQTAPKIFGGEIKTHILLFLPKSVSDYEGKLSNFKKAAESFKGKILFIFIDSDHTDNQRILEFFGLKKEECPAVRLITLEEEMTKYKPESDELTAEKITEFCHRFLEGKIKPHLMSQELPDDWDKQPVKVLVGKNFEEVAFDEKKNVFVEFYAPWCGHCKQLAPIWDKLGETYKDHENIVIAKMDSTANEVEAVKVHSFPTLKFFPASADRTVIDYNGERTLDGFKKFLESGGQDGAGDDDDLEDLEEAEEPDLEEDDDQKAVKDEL
The assay is described as follows: Test Example 1: inhibition of interliposomal triglyceride (TG) transfer activity by MTP (also used for metabolites in Test Example 8). Format: biochemical. The settings on record: MTP-mediated 14C-triolein transfer between liposomes, 37° C., one hour; read-out: Test Example 1 MTP inhibition IC50. In a few lines:
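Partially purified bovine liver MTP (DEAE chromatography) incubated 1 h at 37 °C, pH 7.4, with ^14C-triolein-labelled donor SUVs and unlabelled acceptor SUVs plus compound in DMSO. Acceptor radioactivity, blank-corrected, gave % inhibition versus DMSO; IC50 derived. Metabolites tested likewise.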

The subject of assay [2] is Syrian hamsters. The assay is described as follows: Test Example 3: olive oil-loading test (inhibition of fat absorption, plasma TG). Format: in vivo. The following applies: Mesocricetus auratus, po, plasma TG 4 hours after olive oil, read-out: Test Example 3 Inhibition of fat absorption after olive oil-loading in Hamster Inhibition rate (%); for inhibition in vivo at 3 mg/kg: 3 mg/kg p.o.; for inhibition in vivo at 10 mg/kg: 10 mg/kg p.o. The protocol: Syrian hamsters (9-11 weeks of age) under non-fasted conditions were used in the test. Blood was collected previously from orbital venous plexus, and a sample was suspended in 0.5% methyl cellulose (vehicle) and the suspension was forced to be administered orally to the hamsters at a dose of 0.3, 1, 3 or 10 mg/2 mL/kg. Only vehicle in the same volume was administered to the control group. Olive oil (2 mL/kg) was forced to be administered orally 30 minutes after the administration of the sample, and blood was collected from orbital venous plexus 4 hours later. Plasma was recovered from the blood, and the amount of triglyceride (TG) in the plasma was determined by automatic analyzer (Hitachi Co.). The data was expressed in terms of ΔTG(mg/dL)=the value at 4th hr minus the value before administration. Inhibition rate (%) was calculated from the data obtained on the basis of the following equation.
Inhibition rate (%)=100×(1 minus ΔTG of sample group/ΔTG of control group).

With `CCNC(=O)C(COC(=O)Cc1ccc(NC(=O)c2ccccc2-c2ccc(C(F)(F)F)cc2)cc1)(C(=O)NCC)c1ccccc1` [Example 1, 4-[(4′-Trifluoromethylbiphenyl-2-carbonyl)amino]phenyl-acetic acid 2,2-bisethylcarbamoyl-2-phenylethyl ester], the 50% inhibitory concentration (IC50) (as a rule, the concentration that inhibits the measured activity by half) in assay [1] came out at 0.6 nM.

`CCOC(=O)C(COC(=O)Cc1ccc(OC(=O)c2ccccc2-c2ccc(C(F)(F)F)cc2)cc1)(C(=O)OCC)c1ccccc1` [Example 1-2, 2-Phenyl-2-{2-[4-(4′-trifluoromethylbiphenyl-2-carbonyloxy)phenyl]acetoxymethyl}malonic acid diethyl ester]: in assay [1], the half-maximal inhibitory concentration (IC50) is 42 nM.

On to `CCNC(=O)C(COC(=O)Cc1ccc(NC(=O)c2ccccc2-c2ccc(C(F)(F)F)cc2)c(CC)c1)(C(=O)NCC)c1ccccc1` [Example 1-5, {3-Ethyl-4-[(4′-trifluoromethylbiphenyl-2-carbonyl)amino]phenyl}acetic acid 2,2-bisethylcarbamoyl-2-phenylethyl ester], for which the IC50 in assay [1] stood at 0.66 nM. In addition, the inhibition in vivo at 3 mg/kg in assay [2] worked out at 59%. In the case of `O=C(Cc1ccc(NC(=O)c2ccccc2-c2ccc(C(F)(F)F)cc2)cc1)OCC1(C(=O)NCC(F)(F)F)c2ccccc2-c2ccccc21` [Example 1-6], the IC50 in assay [1] was 1.2 nM. Besides, the inhibition in vivo at 10 mg/kg in assay [2] amounted to 54%. `O=C(Cc1ccc(NC(=O)c2ccccc2-c2ccc(C(F)(F)F)cc2)cc1)OCC(C(=O)NCC(F)(F)F)(C(=O)NCC(F)(F)F)c1ccccc1` [Example 1-12]: in assay [1], the IC50 was found to be 7.6 nM.

As to `COC(=O)C(COC(=O)Cc1ccc(NC(=O)c2ccccc2-c2ccc(C(F)(F)F)cc2)cc1)(C(=O)OC)c1ccccc1` [Example 1-13], the IC50 in assay [1] came out at 5.8 nM. Same read-out and setting: as for `CCCNC(=O)C(COC(=O)Cc1ccc(NC(=O)c2ccccc2-c2ccc(C(F)(F)F)cc2)cc1)(C(=O)NCCC)c1ccccc1` [Example 1-35], the figure is 1 nM. For `CCNC(=O)C(COC(=O)Cc1ccc(NC(=O)c2ccccc2-c2ccc(C(F)(F)F)cc2)c(C(=O)N(C)C)c1)(C(=O)NCC)c1ccccc1` [Example 2, {3-Dimethylcarbamoyl-4-[(4′-trifluoromethylbiphenyl-2-carbonyl)amino]phenyl}acetic acid 2,2-bisethylcarbamoyl-2-phenylethyl ester], the IC50 in assay [1] was determined as 0.62 nM. Further, in assay [2], the inhibition in vivo at 10 mg/kg came to 95%. Consider `CCCNC(=O)C(COC(=O)Cc1ccc(NC(=O)c2ccccc2-c2ccc(C(F)(F)F)cc2)c(C(=O)N(C)C)c1)(C(=O)NCCC)c1ccccc1` [Example 2-2], for which, in assay [1], the IC50 was found to be 1.4 nM. In assay [2], the inhibition in vivo at 10 mg/kg worked out at 96%. `CCNC(=O)C(COC(=O)Cc1ccc(NC(=O)c2ccccc2-c2ccc(C(F)(F)F)cc2)c(C(=O)NC)c1)(C(=O)NCC)c1ccccc1` [Example 2-3]: the IC50 in assay [1] came to 2.1 nM. The inhibition in vivo at 3 mg/kg in assay [2] came out at 68%.

Consider `CCNC(=O)C(CCOC(=O)Cc1ccc(NC(=O)c2ccccc2-c2ccc(C(F)(F)F)cc2)c(C(=O)N(C)C)c1)(C(=O)NCC)c1ccccc1` [Example 2-4], for which the 50% inhibitory concentration (IC50) in assay [1] amounted to 0.94 nM. Moreover, the inhibition in vivo at 3 mg/kg in assay [2] worked out at 78%. On the same counts, the results for `CCOC(=O)C(COC(=O)Cc1ccc(NC(=O)c2ccccc2-c2ccc(C(F)(F)F)cc2)c(C(=O)N(C)C)c1)(C(=O)OCC)c1ccccc1` [Example 2-5] are 1.4 nM and 70%.

As to `CCNC(=O)C(CCCOC(=O)Cc1ccc(NC(=O)c2ccccc2-c2ccc(C(F)(F)F)cc2)c(C(=O)N(C)C)c1)(C(=O)NCC)c1ccccc1` [Example 2-7], in assay [1], the IC50 was determined as 1.1 nM. Moreover, the inhibition in vivo at 3 mg/kg in assay [2] was found to be 58%. `CCOC(=O)C(COC(=O)Cc1ccc(NC(=O)c2ccccc2-c2ccc(C(F)(F)F)cc2)c(C(=O)N2CCCC2)c1)(C(=O)OCC)c1ccccc1` [Example 2-22]: the IC50 in assay [1] was 1.4 nM. For the same compound, the inhibition in vivo at 3 mg/kg in assay [2] turned out to be 61%. On the same counts, the results for `COC(=O)C(COC(=O)Cc1ccc(NC(=O)c2ccccc2-c2ccc(C(F)(F)F)cc2)c(C(=O)N(C)C)c1)(C(=O)OC)c1ccccc1` [Example 2-39] are 0.74 nM and 68%. In the case of `CCNC(=O)C(COC(=O)Cc1ccc(NC(=O)c2ccccc2-c2ccc(C(F)(F)F)cc2)c(OC)c1)(C(=O)NCC)c1ccccc1` [Example 3-3], in assay [1], the IC50 came out at 0.4 nM. The inhibition in vivo at 10 mg/kg in assay [2] came out at 78%. For the compound `CCNC(=O)C(CCOC(=O)Cc1ccc(NC(=O)c2ccccc2-c2ccc(C(F)(F)F)cc2)c(OC)c1)(C(=O)NCC)c1ccccc1` [Example 3-6], the IC50 in assay [1] was 5 nM. The inhibition in vivo at 3 mg/kg in assay [2] was 52%. Consider `CCNC(=O)C(CCOC(=O)Cc1ccc(NC(=O)c2ccccc2-c2ccc(C(F)(F)F)cc2)c(OCC)c1)(C(=O)NCC)c1ccccc1` [Example 3-8], for which, in assay [1], the IC50 was 3.7 nM. Further, in assay [2], the inhibition in vivo at 3 mg/kg stood at 60%.

For the compound `CCNC(=O)C(COC(=O)Cc1ccc(NC(=O)c2ccccc2-c2ccc(C(F)(F)F)cc2)c(OC(C)C)c1)(C(=O)NCC)c1ccccc1` [Example 3-10], the IC50 in assay [1] amounted to 2.7 nM. In addition, in assay [2], the inhibition in vivo at 3 mg/kg amounted to 85%.
